Assay results from patent publication US20240317762A1, “PHTHALAZINONE-BASED PARP-1 INHIBITORS” (Oregon Health & Science University, priority 2021, published 2024).

Legend:
[1] = system: pan-nuclear γH2AX in HEK 293T cells; test: γH2AX immunofluorescence; format: cell-based, human; conditions: for reduction of AZ0108-induced pan-nuclear γH2AX / increase of AZ0108-induced pan-nuclear γH2AX: kinase inhibitor co-treated with AZ0108
Method: HEK 293T or HEK 293 PARP-1 KO cells were seeded onto poly-d-lysine treated glass coverslips and treated with indicated concentrations of inhibitors for 18 hours. Cells were then washed with 1×PBS and fixed using 4% Sucrose/4% Paraformaldehyde in PBS for 20 minutes. After three washes in 1×PBS, cells were permeabilized in 0.3% Triton X-100 in PBS for 5 minutes followed by an additional three washes in 1×PBS. Coverslips were blocked in 3% BSA/0.1% Triton X-100 in PBS for 1 hour and then placed in primary anti-rabbit phosphoH2Ax antibody (1:200, Cell Signaling) overnight at 4° C. The next morning, cells were washed three times in 1×PBS and treated with blocking solution, 3% BSA/0.1% Triton X-100 in PBS, for 30 minutes before being placed in secondary anti-rabbit Alexa Fluor 647 (1:1000 Jackson Immuno) for 1 hour at RT. After three subsequent 1×PBS washes, coverslips were mounted using ProLong Gold antifade reagent with DAPI (Invitrogen). All immunofluorescence images were taken on a Zeiss ApoTome2 on Axiolmager and analyzed using Zeiss software. Mean intensity of the Alexa Fluor 647 signal was measured after imposing DAPI masks over the nucleus of each cell. All cells within a 20× image, was analyzed (˜3000 cells/condition).
Cell are stained for DAPI and γH2AX. Scale bar indicates 50 μm. FIG. 2B) Quantification of panel a. […] Error bars represent SEM. […] Error bars represent SEM. […] Error bars represent SEM.

[2] = system: Ewing sarcoma cell line EW-8; test: ES-8 viability screen (CellTiter-Glo); format: cell-based; conditions: for Fold Difference to Pip6: ratio of EC50 values; for EC50: viability, 72 h
Method: Cell viability was measured using the CellTiter-Glo (Promega, G7573) assay and read using an Envision (PerkinElmer) plate reader. Compound source plates (96-well) were prepared by solubilizing each drug in DMSO to a maximum concentration of 1-50 mM, then arraying samples in 10-point dose-response with 3-fold dilution. Positive and negative controls (staurosporine at 10 mM and DMSO, respectively) were added to the source plates. Drug was transferred from the source plate to the assay plate using a Biomek FX (Beckman Coulter) liquid handler equipped with a pin tool which transferred ˜100 nl into a final volume of 100 μl, resulting in ˜1000-fold dilution. At least two biological replicates (assay performed on different day with same drug plate and independent cell preparation) were obtained for each drug. To analyze the assay, the relative light unit signal in each well was first log 2 transformed, then normalized by subtracting the mean of the negative controls wells on each plate.
FIGS. 6A-6E. […] 0.1 μM ad-olaparib (chemical structure indicated in panel a) was added to the cells for 1 hour before undergoing a UV treatment for 5 minutes in cold PBS. Cells were lysed and sonicated in PBS (1% Triton X-100+1% SDS), clicked with TAMRA-azide and run out on SDS-PAGE. The gel was imaged for TAMRA and probed for PARP-1 (Bethyl Laboratories), and alpha-tubulin (X). FIGS. 6B, 6D) Quantification of western blot images. TAMRA or ADPr values are normalized to PARP-1 within each replicate and plotted as percentage compared to DMSO. Error bars indicate SEM (n=3-4). Statistical significance of off-rate calculated via multiple t-tests (p<0.05). […] Cells were subsequently treated with PARGi (10 μM) for 30 minutes, lysed using RIPA buffer, run out on SDS-PAGE, and probed for ADPr (Cell Signaling) and PARP-1 (Bethyl Laboratories). FIG. 6E) ES-8 cells were treated with indicated concentration of inhibitors for 72 hours before measuring cell viability using the CellTiter-Glo kit (Promega G7573). IC50 values were calculated using R statistical software.

HEK 293T cells [3] = test: cell proliferation (MTT) assay; format: cell-based, human; conditions: MTT, 72 h; for EC50: Homo sapiens, HEK-293T, read-out: EC50 cell growth
Method: HEK 293T or HEK 293 PARP-1 KO cells were seeded in a 96 well plate at 1000-2000 cells per well. Following an overnight incubation, MTT reagent, 3-(4,5-dimethylthiazol-2-yl)-2,5-diphenyltetrazolium bromide, or a dosage curve of indicated inhibitor was added to each well in quadruplicate. Following a 3-hour incubation at 37° C., wells containing MTT reagent, were aspirated and lysed with 100 μl DMSO. These wells acting as a no growth control were collected, saved @ −20° C., and replaced with 100 μl water. The plate was placed back into the incubator for a total of 72 hours of inhibitor treatment prior to MTT reagent being added for a final time. Following a 3 hour incubation with the reagent, wells were aspirated, and 100 μl DMSO were added to each well, while the no growth control sample was added back to the plate. Absorbance was read on a SpectraMaxi3 plate reader (Molecular Devices). Percent growth was calculated for analysis. Statistical significance was assigned using individual t-tests between conditions for each inhibitor dosage.
(§1) Error bars represent SEM. […] Error bars represent SEM. […] Error bars represent SEM.

[4] = system: caspase-3/7 activity in HEK 293 cells; test: cell apoptosis assay (Caspase-Glo 3/7); format: cell-based, human; conditions: 1 μM, 72 hours
Method: HEK 293 or HEK 293 PARP-1 KO cells were seeded in a 96 well plate at 1000-2000 cells per well, a media only “blank” was also included. Following an overnight incubation, cells were treated with 1 μM of indicated inhibitors. “Blank” wells were treated with DMSO. Following a 72 hour inhibitor treatment, the Caspase-Glo 3/7 Assay was completed following the manufacturer instructions (Promega, #G8091). Luminescence was read on a SpectraMax i3 plate reader (Molecular Devices).
as §1

HEK 293T cells [5] = test: analysis of cell cycle (DAPI, flow cytometry); conditions: for G1 / G2 / S: DAPI intensity, 18 hours
Method: After the indicated treatments, cells were washed twice with 1× PBS, trypsinized off of the plate, and washed an additional 2 times with 1×PBS. Cells were then permeabilized using 70% cold ethanol while vortexing before incubating for 30 min at 4° C. Cells were then washed three times with 1×PBS and counted using a hemocytometer to create a final pellet of 1×10^6 cells in for each inhibitor condition. 500 μl of DAPI solution (1 μg/ml DAPI, 0.1% Triton X-100 in PBS) was added to each cell pellet and incubated on ice for 30 min before being analyzed by flow cytometry using a BD Canto II. All data was analyzed on FlowJo software, gating for 20,000 singlet events. Manual cell cycle gates were set onto the DMSO control data using Watson modeling as reference. These gates were applied to all treatment conditions to obtain quantitative analysis.
Error bars represent SEM. […] Caspase-Glo 3/7 reagent was added to each well and luminescence was read after 30 minutes. […] Error bars represent SEM. […] Cell cycle was analyzed by flow cytometry (20,000 singlet events) and cell cycle statistics were calculated in FlowJo software against DMSO Watson modeling (n=3). FIG. 3F) DNA synthesis was measured using EdU incorporation. […] EdU incorporation was labelled using TAMRA azide click-chemistry and imaged at 20×. Mean intensity of TAMRA signal within DAPI masks analyzed using Zen software (n>3900 cells over 2 replicates). Values are normalized to the average DMSO control within each replicate. Error bars represent SEM. Statistical significance calculated via one-way ANOVA with Tukey's multiple comparisons test (p<0.05).

PARP-1 [6] = target: T1, PARP-1 (Homo sapiens, UniProt P09874); test: in vitro fluorescence polarization DNA competition assay; conditions: 25 μM compound; PARP-1 40 nM; nicked dumbbell DNA probe 20 nM
Method: The full-length WT PARP-1 protein used in these assays was purified as described previously (30).
An unlabeled competitor was added and the decrease in fluorescence polarization was measured across time.

PARP-1 [7] = target: T1, PARP-1; test: in vitro PARP-1 auto-PARylation assay (SRPK2 plate assay); format: biochemical; design: The full-length WT PARP-1 protein used in these assays; made in house; conditions: read-out: IC50 against PARP-1 catalytic activity (auto-PARylation)
Method: IC50 SRPK2 Plate Assays were performed as previously described (21). Log(inhibitor) versus response curves were fit using non-linear regression with variable slope. Mean IC50 values for each compound were derived from a minimum of three separate replicates.

[8] = system: Ser345 phosphorylation of Chk1 in HEK 293 cells; test: western blot analysis of phosphorylation of Chk1; conditions: co-treatment with AZ0108
[9] = system: PARP-1 (full-length WT) (Homo sapiens); test: FP; conditions: 5 uM AZ0108 increased affinity 4-fold over no inhibitor; olaparib only modest effect

T1 sequence (P09874 whole entry): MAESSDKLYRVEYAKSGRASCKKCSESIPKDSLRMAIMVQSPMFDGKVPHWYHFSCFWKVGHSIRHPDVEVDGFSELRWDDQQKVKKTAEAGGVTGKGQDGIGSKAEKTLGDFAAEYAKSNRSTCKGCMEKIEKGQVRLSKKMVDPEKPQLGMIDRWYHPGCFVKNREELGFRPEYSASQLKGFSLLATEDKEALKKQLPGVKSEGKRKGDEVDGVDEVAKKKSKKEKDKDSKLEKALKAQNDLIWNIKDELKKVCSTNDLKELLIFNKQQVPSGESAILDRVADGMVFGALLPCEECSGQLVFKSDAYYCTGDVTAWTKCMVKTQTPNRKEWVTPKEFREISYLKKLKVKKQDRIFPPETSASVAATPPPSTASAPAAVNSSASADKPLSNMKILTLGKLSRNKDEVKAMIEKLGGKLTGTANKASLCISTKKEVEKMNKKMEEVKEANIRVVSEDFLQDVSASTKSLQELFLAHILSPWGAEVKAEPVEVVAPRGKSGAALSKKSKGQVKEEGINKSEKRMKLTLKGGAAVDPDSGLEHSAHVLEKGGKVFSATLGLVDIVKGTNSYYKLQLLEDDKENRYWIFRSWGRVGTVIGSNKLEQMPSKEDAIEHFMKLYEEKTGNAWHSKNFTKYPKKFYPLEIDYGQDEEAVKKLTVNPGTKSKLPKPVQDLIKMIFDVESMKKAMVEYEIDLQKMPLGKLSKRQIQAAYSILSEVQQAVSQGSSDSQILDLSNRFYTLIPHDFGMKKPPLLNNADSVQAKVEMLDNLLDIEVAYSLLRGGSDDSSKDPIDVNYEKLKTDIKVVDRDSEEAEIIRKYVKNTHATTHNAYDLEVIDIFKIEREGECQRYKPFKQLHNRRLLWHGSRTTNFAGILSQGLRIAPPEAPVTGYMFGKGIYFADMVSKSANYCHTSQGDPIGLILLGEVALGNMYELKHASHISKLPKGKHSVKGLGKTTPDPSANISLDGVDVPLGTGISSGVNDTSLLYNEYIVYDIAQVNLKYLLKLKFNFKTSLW

O=c1cc(-c2cccc3c2Sc2ccccc2S3)oc(N2CCOCC2)c1 [KU-55933]
reduction of AZ0108-induced pan-nuclear γH2AX [1]: ~2 fold

O=c1cc(N2CCOCC2)oc2c(-c3cccc4c3sc3ccccc34)cccc12 [NU7441]
increase of AZ0108-induced pan-nuclear γH2AX [1]: ~1.3 fold

NC(=O)c1cccc2cn(-c3ccc([C@@H]4CCCNC4)cc3)nc12 [Niraparib]
Fold Difference to Pip6 [2]: 5693
EC50 [2]: 1380 nM

O=C(c1cc(Cc2n[nH]c(=O)c3ccccc23)ccc1F)N1CCN(C(=O)C2CC2)CC1 [Olaparib]
pan-nuclear γH2AX induction ([1]; HEK 293T cells, 18 hours): did not induce either pan-nuclear γH2AX or γH2AX foci
effect of co-treatment on AZ0108-induced pan-nuclear γH2AX ([1]; co-treatment with AZ0108): reversed the effects of AZ0108 on pan-nuclear γH2AX
EC50 (HEK 293T cells [3]): ~10000 nM
reduction of caspase-3/7 activity [4]: did not significantly affect
G1 (HEK 293T cells [5]): 19.4%
G2 (HEK 293T cells [5]): 9.50%
S (HEK 293T cells [5]): 54.0%
effect on cell cycle (HEK 293T cells [5]; FACS, DAPI fluorescence): did not alter the cell cycle

O=C(c1cc(Cc2n[nH]c(=O)c3ccccc23)ccc1F)N1CCn2cnnc2C1 [Pip1, 4-(4-Fluoro-3-(5,6,7,8-tetrahydro-[1,2,4]triazolo[4,3-a]pyrazine-7-carbonyl)benzyl)phthalazin-1(2H)-one]
EC50 (HEK 293T cells [3]): ~6000 nM
exchange of the PARP-1:labled DNA complex with an unlabeled DNA competitor (PARP-1 [6]): very little impact
IC50 (PARP-1 [7]): 3.9 nM

Cc1nnc2n1CCN(C(=O)c1cc(Cc3n[nH]c(=O)c4ccccc34)ccc1F)C2 [Pip2, 4-(4-Fluoro-3-(3-methyl-5,6,7,8-tetrahydro-[1,2,4]triazolo[4,3-a]pyrazine-7-carbonyl)benzyl) phthalazin-1(2H)-one]
exchange of the PARP-1:labled DNA complex with an unlabeled DNA competitor (PARP-1 [6]): very little impact

O=C(c1cc(Cc2n[nH]c(=O)c3ccccc23)ccc1F)N1CCn2c(nnc2C(F)(F)F)C1 [Pip3, 4-(4-Fluoro-3-(3-(trifluoromethyl)-5,6,7,8-tetrahydro-[1,2,4]triazolo[4,3-a]pyrazine-7-carbonyl)benzyl) phthalazin-1(2H)-one]
potency in inhibiting cell growth compared with AZ0108 (HEK 293T cells [3]): substantially more potent than AZ0108

CC(C)c1nnc2n1CCN(C(=O)c1cc(Cc3n[nH]c(=O)c4ccccc34)ccc1F)C2 [Pip4, 4-(4-Fluoro-3-(3-isopropyl-5,6,7,8-tetrahydro-[1,2,4]triazolo[4,3-a]pyrazine-7-carbonyl)benzyl) phthalazin-1(2H)-one]
IC50 (PARP-1 [7]): 17.5 nM

CC(F)(F)c1nnc2n1CCN(C(=O)c1cc(Cc3n[nH]c(=O)c4ccccc34)ccc1F)C2 [Pip5, 4-(4-Fluoro-3-(3-(1,1-difluoroethyl)-5,6,7,8-tetrahydro-[1,2,4]triazolo[4,3-a]pyrazine-7-carbonyl)benzyl)phthalazin-1(2H)-one]
potency in inhibiting cell growth compared with AZ0108 (HEK 293T cells [3]): substantially more potent than AZ0108

CNCc1ccc(-c2[nH]c3cc(F)cc4c3c2CCNC4=O)cc1 [Rucaparib]
Fold Difference to Pip6 [2]: 22998
EC50 [2]: 5570 nM

CCc1c2c(nc3ccc(O)cc13)-c1cc3c(c(=O)n1C2)COC(=O)[C@]3(O)CC [SN-38]
Fold Difference to Pip6 [2]: ~3
EC50 [2]: 0.75 nM

Oc1c2ccccc2c2c3c(cccc13)N=N2 [SP600125]
reduction of AZ0108-induced pan-nuclear γH2AX [1]: ~2 fold

Cn1ncnc1[C@H]1c2n[nH]c(=O)c3cc(F)cc(c23)N[C@@H]1c1ccc(F)cc1 [Talazoparib]
Fold Difference to Pip6 [2]: 59
EC50 [2]: 14.2 nM

Cc1cn([C@H]2C[C@H](O)[C@@H](CO)O2)c(=O)[nH]c1=O [Thymidine]
G1 (HEK 293T cells [5]): 2.79%
G2 (HEK 293T cells [5]): 7.06%
S (HEK 293T cells [5]): 76.3%

CS(=O)(=O)c1ccc(-c2cnc(N)c(C(=O)Nc3ccccc3)n2)cc1 [VE-821]
increase of AZ0108-induced pan-nuclear γH2AX [1]: ~1.3 fold
effect on AZ0108-induced Ser345 phosphorylation of Chk1 [8]: significantly inhibited

C[C@]1(c2nc3c(C(N)=O)cccc3[nH]2)CCCN1 [Veliparib]
Fold Difference to Pip6 [2]: 245827
EC50 [2]: 59600 nM

dumbbell DNA probe with central nick
binding signal [9]: 4 fold
